These results are taken from patent publication US11993586B2, “Crystalline forms of potassium channel modulators” (Novartis AG, priority 2018, dated 2024).

The nature of the data set: Solid form stability (conversion on heating or storage, by 1H solution NMR and XRPD). It is filed as physicochemical. Here is the method: Form C was obtained by slow evaporation from an IPA solution at RT. […] (onset temperatures) and 93.3° C. (peak temperature) (FIG. 5).
Form D was obtained via slow evaporation from EtOH solution at RT. […] (onset temperatures) and an exotherm at 88.5° C. (peak temperature) (FIG. 8).
(onset temperatures) (FIG. 9).
Form F was obtained by evaporation of DCM solution (100 mg scale) at RT for 1 day. […] (onset temperatures) and an exotherm at 86.9° C. (peak temperature) (FIG. 11).

For `Cc1ccn(-c2nc(NC3CCC(F)(F)CC3)cc(N3CCOCC3)n2)n1` [Form E], the Solid form conversion entry (heated to 130° C.) is “converted to anhydrate Form B”.

In the case of `Cc1ccn(-c2nc(NC3CCC(F)(F)CC3)cc(N3CCOCC3)n2)n1` [Form C], the Solid form conversion result is recorded as “converted to anhydrate Form B” (heated to 110° C.) and “converted to anhydrate Form B” (stored at RT for 8 days).

In the case of `Cc1ccn(-c2nc(NC3CCC(F)(F)CC3)cc(N3CCOCC3)n2)n1` [Form D], the Solid form conversion entry (stored at RT for a month) was “converted to anhydrate Form B”.

On to `Cc1ccn(-c2nc(NC3CCC(F)(F)CC3)cc(N3CCOCC3)n2)n1` [Form F], for which the Solid form conversion entry (heated to 120° C.) is “converted to anhydrate Form B”.
